{
  "source": "patent US9006252B2",
  "about": "“Fused multicyclic compounds as protein kinase inhibitors” (National Health Research Institutes, priority 2008, dated 2015)",
  "key": {"[1]": {"tested_on": "HCT-116 colon tumor xenograft", "assay": "In vivo anticancer efficacy in colon tumor xenograft mice (injected with HCT-116)", "set-up": "species or system nude mice", "conditions": "for tumor growth suppression (in words): versus VX-680 at 50 mg/kg", "method": "In vivo anticancer efficacy of the compounds of this invention was assessed using colon tumor xenograft mice (injected with HCT-116), as described in Cancer Research 2004, 64, 4621-4628.\n(§1) HCT-116 cells were injected via s.c. in nude mice to form colon tumor xenograft mice. Mice bearing tumors with a size of ˜100 mm^3 were randomly assigned to three groups: a vehicle control group (10 mice), a positive control group (10 mice), and a treatment group (21 mice). Of the treated mice, ten received Compound 3 at a daily dosage of 25 mg/kg via IV injection through the tail veins for 5 days/week for 2 consecutive weeks (days 1-5 and 8-12) and eleven received the same compound at a daily dosage of 50 mg/kg via IV injection through the tail veins for 5 consecutive days (days 1-5). The positive control mice received VX-680 (a known anti-cancer drug) at a daily dosage of 50 mg/kg, also via IV injection through the tail veins for 5 days/week for 2 consecutive weeks (days 1-5 and 8-12).\nas §1, with “Compound 4” for “Compound 3”, “of 5 mg/kg and eleven received the same compound at a daily dosage of 15” for “of 25”, “and 8-12).” for “and 8-12) and eleven received the same compound at a daily dosage of 50 mg/kg via IV injection through the tail veins for 5 consecutive days (days 1-5).”, “VX-680” for “VX-680 (a known anti-cancer drug)”"}, "[2]": {"target": "T1, Aurora A (Homo sapiens, UniProt O14965)", "T1 construct": "GST-tAurora A (123-401aa) fusion protein obtained above; made in house; host or cells: Sf9 insect cells (baculovirus, pBacPAK8)", "T1 sequence (O14965 123-401)": "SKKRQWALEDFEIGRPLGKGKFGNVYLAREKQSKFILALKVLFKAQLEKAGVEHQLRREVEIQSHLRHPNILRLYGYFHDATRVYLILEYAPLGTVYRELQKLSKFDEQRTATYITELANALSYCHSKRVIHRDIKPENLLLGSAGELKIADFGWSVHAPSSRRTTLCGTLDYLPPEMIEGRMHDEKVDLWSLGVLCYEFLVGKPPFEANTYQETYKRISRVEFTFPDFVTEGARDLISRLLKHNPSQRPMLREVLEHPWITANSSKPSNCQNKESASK", "assay": "Aurora Kinase A luminescent kinase assay (Kinase-Glo)", "type": "biochemical", "conditions": "IC50 values (concentration of a test compound at which activity of 50% of Aurora A is inhibited), GST-tAurora A (123-401aa) fusion protein", "method": "The Aurora A catalytic domain with an N-terminal GST tag was constructed in pBacPAK8 plasmid and expressed in sf9 cells. […] To concentrate GST-tAurora A, buffer was replaced with Tris buffer (100 mM Tris (pH 7.5), 300 mM NaCl, 1 mM EDTA, 4 mM DTT) using Amicon ultra-15 (MWCO:30K, Millipore) to 2.4 mg/ml. After the addition of equal volume of glycerol and 0.04% Triton X-100, the proteins were stored aliquoted at −80° C.\nBriefly, a test compound, enzyme, substrate-tetra(LRRWSLG), DTT and ATP were dissolved in Aur buffer (50 mM Tris-HCl pH 7.4, 10 mM NaCl, 10 mM MgCl2, and 100 μg/ml BSA) individually before the assay. […] 5 μM ATP (5 μl), 1 mM DTT (5 μl) and 0.1 mM tetra(LRRWSLG) peptide substrate (5 μl) were added into the reactions of test compounds and GST-tAurora A. The reactions were incubated at 37° C. for 90 min. 50 μl of Kinase-Glo Plus Reagent (V3771, Promega) was added into the reactions, followed by the incubation at 25° C. for 20 min."}, "[3]": {"tested_on": "HCT-116 cells", "assay": "HCT-116 cell viability, MTS assay", "type": "cell-based", "conditions": "Homo sapiens, HCT-116, 96 h, 96-h incubation, MTS; read-out: IC50 values, HCT-116 cell viability", "method": "HCT-116 cell viability was examined by the MTS assay (Promega, Madison, Wis., USA). 2000 HCT-116 cells in 100 μL McCoy's 5a medium were seeded in each well of a 96-well plate. After 96-h incubation with a test compound, the cells were incubated with 20 μL of a MTS/PMS mixture (MTS/PMS ratio: 20:1) for 2 h at 37° C. in a humidified incubator with 5% CO2 to allow viable cells to convert the tetrazolium salt (MTS) into formazan. The amount/concentration of formazan, which indicates the number of live cells, was determined by measuring the absorbance at 490 nm using a PerkinElmer Victor2 plate reader (PerkinElmer, Shelton, Conn., USA)."}},
  "note": "“And” between values parts separate entries of the source, which are not always exact repeats. Identical values can stand only once.",
  "data": [
    {"smiles": "Cc1cc(Nc2cc(N3CCN(C)CC3)nc(Sc3ccc(NC(=O)C4CC4)cc3)n2)n[nH]1", "note": "[VX-680, reference compound]", "values": [
      {"measurement": "tumor size as % of that in the vehicle control animals", "setting": "[1]; 50 mg/kg daily IV, days 1-5 and 8-12, 22nd day post treatment", "value": 50, "unit": "%"}
    ]},
    {"smiles": "CN(C)CCCOc1ccc2c(NCCc3ccc(NC(=O)Nc4ccccc4)cc3)ncnc2c1", "note": "[Compound 4, 1-(4-{2-[7-(3-Dimethylamino-propoxy)-quinazolin-4-ylamino]-ethyl}-phenyl)-3-phenyl-urea]", "values": [
      {"measurement": "IC50", "setting": "[2]", "value": "< 1000 nM and 51 to 450 nM"},
      {"measurement": "IC50", "setting": "[3]", "value": "< 100", "unit": "nM"},
      {"measurement": "tumor size as % of that in the vehicle control group", "setting": "[1]; 5 mg/kg daily IV, days 1-5 and 8-12, 22nd day post treatment", "value": 67, "unit": "%"},
      {"measurement": "tumor size as % of that in the vehicle control group", "setting": "[1]; 15 mg/kg daily IV, days 1-5 and 8-12, 22nd day post treatment", "value": 37, "unit": "%"},
      {"measurement": "tumor growth suppression (in words)", "setting": "[1]; dosage of 15 mg/kg IV", "value": "suppressed tumor growth significantly and better than VX-680"}
    ]},
    {"smiles": "COc1cc2ncnc(NCCc3ccc(NC(=O)Nc4ccccc4CN(C)C)cc3)c2cc1OC", "note": "[Compound 3, 1-{4-[2-(6,7-Dimethoxy-quinazolin-4-ylamino)-ethyl]-phenyl}-3-(2-dimethylaminomethyl-phenyl)-urea]", "values": [
      {"measurement": "IC50", "setting": "[2]", "value": "< 1000 nM and 51 to 450 nM"},
      {"measurement": "IC50", "setting": "[3]", "value": "< 100", "unit": "nM"},
      {"measurement": "tumor size as % of that in the vehicle control group", "setting": "[1]; 25 mg/kg daily IV, days 1-5 and 8-12, 22nd day post treatment", "value": 35, "unit": "%"},
      {"measurement": "tumor size as % of that in the vehicle control group", "setting": "[1]; 50 mg/kg daily IV, days 1-5, 22nd day post treatment", "value": 36, "unit": "%"},
      {"measurement": "tumor growth suppression (in words)", "setting": "[1]; dosages of 25 and 50 mg/kg IV", "value": "suppressed tumor growth significantly and better than VX-680"}
    ]},
    {"smiles": "COc1cc2ncnc(NCCc3ccc(NC(=O)Nc4ccccc4F)cc3)c2cc1OC", "note": "[Compound 246]", "values": [
      {"measurement": "IC50", "setting": "[2]", "value": "51 to 450 nM and < 1000 nM"},
      {"measurement": "IC50", "setting": "[3]", "value": "101 to 850", "unit": "nM"}
    ]}
  ]
}
